Data as given in US20240002438A1, “MELANOCORTIN LIGANDS AND METHODS OF USE THEREOF” (REGENTS OF THE UNIVERSITY OF MINNESOTA, priority 2021, published 2024).
pEC50, pKi: −log10 of the molar value. Where two headings read alike, the source gives them in different places. Where a SMILES comes first, the peptide text is derived from it. [ ]: non-standard residue; d: D form. dPhe(4-I) = N[C@H](Cc1ccc(I)cc1)C(=O)O; 2Nal = N[C@@H](Cc1ccc2ccccc2c1)C(=O)O; d2Nal = N[C@H](Cc1ccc2ccccc2c1)C(=O)O

How the values were obtained:
mMC3R [1] = biological target: T1, mMC3R (Mus musculus, UniProt P33033); assay: mMC3R | Antagonist Potency Ki (nM); parameters: expressed in transfected cells; host or cells: HEK293
Text: (§1) Table printed on a drawing sheet, FIGURE 18
(§2) Title: Tetrapeptide Antagonist Pharmacology at the Mouse Melanocortin Receptors.^a
Head of the field: mMC3R | Antagonist Potency Ki (nM)
(§3) First copying reader's note: Columns 4 and 7 are empty spacer columns as printed; the table runs off the bottom of the sheet (continued on the next sheet) and footnotes a and b are not printed here.
Target sequence in this assay (P33033 whole entry, looked up): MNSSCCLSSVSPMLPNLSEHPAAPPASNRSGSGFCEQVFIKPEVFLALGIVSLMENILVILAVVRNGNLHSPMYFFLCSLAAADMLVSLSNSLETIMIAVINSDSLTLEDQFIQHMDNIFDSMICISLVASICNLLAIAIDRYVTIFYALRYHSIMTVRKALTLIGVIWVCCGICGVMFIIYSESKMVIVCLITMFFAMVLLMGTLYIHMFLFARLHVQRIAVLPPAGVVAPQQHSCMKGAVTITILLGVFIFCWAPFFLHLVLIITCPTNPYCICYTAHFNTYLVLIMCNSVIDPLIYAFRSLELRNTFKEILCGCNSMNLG

mMC4R [2] = biological target: T2, mMC4R (Mus musculus, UniProt P56450); assay: mMC4R | Antagonist Potency Ki (nM); parameters: expressed in transfected cells; host or cells: HEK293
Text: as §1, §2
Target sequence in this assay (P56450 whole entry, looked up): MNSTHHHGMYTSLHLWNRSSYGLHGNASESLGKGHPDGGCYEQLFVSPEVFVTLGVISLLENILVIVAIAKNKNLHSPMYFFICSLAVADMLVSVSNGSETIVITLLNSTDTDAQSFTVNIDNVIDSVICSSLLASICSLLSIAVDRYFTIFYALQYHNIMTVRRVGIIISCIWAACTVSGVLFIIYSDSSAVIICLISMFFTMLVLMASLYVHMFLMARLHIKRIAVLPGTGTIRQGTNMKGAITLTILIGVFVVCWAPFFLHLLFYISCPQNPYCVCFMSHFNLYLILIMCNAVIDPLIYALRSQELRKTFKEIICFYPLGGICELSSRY
Head of the field: mMC4R | Antagonist Potency Ki (nM)
as §3

mMC5R = mMC5R (Mus musculus, UniProt P41149); assay: cAMP AlphaScreen agonist assay at mMC5R, HEK293 cells; conditions: for mMC5R agonist activity: up to 100 μM; for mMC5R partial stimulation, % of the maximal NDP-MSH signal: 100 μM
mMC5R, sequence (P41149 whole entry): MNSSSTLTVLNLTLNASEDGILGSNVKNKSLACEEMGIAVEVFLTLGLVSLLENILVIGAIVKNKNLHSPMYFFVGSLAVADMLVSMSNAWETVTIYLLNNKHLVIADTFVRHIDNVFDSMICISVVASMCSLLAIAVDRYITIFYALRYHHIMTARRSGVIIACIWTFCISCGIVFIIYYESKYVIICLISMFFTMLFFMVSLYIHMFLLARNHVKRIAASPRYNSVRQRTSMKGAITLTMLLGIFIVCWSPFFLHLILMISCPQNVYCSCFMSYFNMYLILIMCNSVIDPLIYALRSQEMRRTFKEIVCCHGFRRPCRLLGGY
Protocol: (§4) Following stimulation, streptavidin donor beads (0.5 μg) and biotinylated-cAMP (0.62 μmol) were added to the wells in a green light environment with 10 μL of lysis buffer (5 mM HEPES, 0.3% Tween-20, 0.1% BSA, pH=7.4) and the plates were incubated in the dark at room temperature for an additional 2 h. Plates were read on a Enspire (PerkinElmer) Alpha-plate reader using a pre-normalized assay protocol (set by the manufacturer).

mMC3R [3] = biological target: T1, mMC3R; assay: cAMP AlphaScreen antagonist assay at mMC3R, NDP-MSH as agonist, HEK293 cells; conditions: for mMC3R antagonist activity: at the concentrations assayed; for mMC3R antagonist pA2: NDP-MSH as agonist, HEK293 cells stably expressing mMC3R
Target sequence in this assay (P33033 whole entry): as the sequence (P33033 whole entry, looked up) above

mMC4R [4] = biological target: T2, mMC4R; assay: cAMP AlphaScreen antagonist assay at mMC4R, NDP-MSH as agonist, HEK293 cells; conditions: NDP-MSH as agonist; HEK293 cells stably expressing mMC4R
Target sequence in this assay (P56450 whole entry): as the sequence (P56450 whole entry, looked up) above
Protocol: as §4

Molecule	pKi (mMC3R [1])	pKi (mMC4R [2])	other results
CC(=O)N[C@H](Cc1ccc2ccccc2c1)C(=O)N[C@H](Cc1ccc2ccccc2c1)C(=O)N[C@@H](Cc1c[nH]c2ccccc12)C(=O)N[C@H](CCCCN)C(N)=O [4 | COR1-29-2, Ac-DNal(2’)-DNal(2’)-Trp-DLys-NH2] (Ac-[d2Nal][d2Nal]W[dK]-NH2)	5.80	6.70	
CC(=O)N[C@H](Cc1ccc2ccccc2c1)C(=O)N[C@@H](CCCNC(=N)N)C(=O)N[C@H](Cc1ccc2ccccc2c1)C(=O)N[C@H](CCCCN)C(N)=O [13 | COR1-29-5, Ac-DNal(2’)-Arg-DNal(2’)-DLys-NH2] (Ac-[d2Nal]R[d2Nal][dK]-NH2)	6.00	8.20	
CC(=O)N[C@H](Cc1ccc2ccccc2c1)C(=O)N[C@@H](CCCNC(=N)N)C(=O)N[C@H](Cc1ccc2ccccc2c1)C(=O)N[C@H](Cc1ccc2ccccc2c1)C(N)=O [14 | COR2-57, Ac-DNal(2’)-Arg-DNal(2’)-DNal(2’)-NH2] (Ac-[d2Nal]R[d2Nal][d2Nal]-NH2)	5.70	6.30	
CC(=O)N[C@H](Cc1ccc2ccccc2c1)C(=O)N[C@@H](CCCNC(=N)N)C(=O)N[C@H](Cc1ccc2ccccc2c1)C(=O)N[C@@H](CCCNC(=N)N)C(N)=O [15 | COR2-93, Ac-DNal(2’)-Arg-DNal(2’)-Arg-NH2] (Ac-[d2Nal]R[d2Nal]R-NH2)	6.10	8.30	
CC(=O)N[C@H](Cc1ccc2ccccc2c1)C(=O)N[C@@H](CCCNC(=N)N)C(=O)N[C@@H](Cc1c[nH]c2ccccc12)C(=O)N[C@H](CCCCN)C(N)=O [16 | COR1-29-6, Ac-DNal(2’)-Arg-Trp-DLys-NH2] (Ac-[d2Nal]RW[dK]-NH2)	5.49	7.70	
CC(=O)N[C@H](Cc1ccc2ccccc2c1)C(=O)N[C@@H](CCCNC(=N)N)C(=O)N[C@@H](Cc1c[nH]c2ccccc12)C(=O)N[C@H](Cc1ccc2ccccc2c1)C(N)=O [17 | COR1-60, Ac-DNal(2’)-Arg-Trp-DNal(2’)-NH2] (Ac-[d2Nal]RW[d2Nal]-NH2)	5.70	7.00	
CC(=O)N[C@H](Cc1ccc2ccccc2c1)C(=O)N[C@@H](CCCNC(=N)N)C(=O)N[C@@H](Cc1c[nH]c2ccccc12)C(=O)N[C@@H](CCCNC(=N)N)C(N)=O [18 | MDE10-27, Ac-DNal(2’)-Arg-Trp-Arg-NH2] (Ac-[d2Nal]RWR-NH2)	6.80	8.30	
CC(=O)N[C@H](Cc1ccc2ccccc2c1)C(=O)N[C@@H](CCCNC(=N)N)C(=O)N[C@H](Cc1ccc(I)cc1)C(=O)N[C@H](CCCCN)C(N)=O [19 | COR1-29-7, Ac-DNal(2’)-Arg-DPhe(pI)-DLys-NH2]	6.89	8.49	
CC(=O)N[C@H](Cc1ccc2ccccc2c1)C(=O)N[C@@H](CCCNC(=N)N)C(=O)N[C@H](Cc1ccc(I)cc1)C(=O)N[C@H](Cc1ccc2ccccc2c1)C(N)=O [20 | COR2-15, Ac-DNal(2’)-Arg-DPhe(pI)-DNal(2’)-NH2] (Ac-[d2Nal]R[dPhe(4-I)][d2Nal]-NH2)	6.10	6.49	
CC(=O)N[C@H](Cc1ccc2ccccc2c1)C(=O)N[C@@H](CCCNC(=N)N)C(=O)N[C@H](Cc1ccc(I)cc1)C(=O)N[C@@H](CCCNC(=N)N)C(N)=O [21 | COR2-105, Ac-DNal(2’)-Arg-DPhe(pI)-Arg-NH2] (Ac-[d2Nal]R[dPhe(4-I)]R-NH2)	7.10	8.60	
CC(=O)N[C@H](Cc1ccc2ccccc2c1)C(=O)N[C@@H](CCCNC(=N)N)C(=O)N[C@@H](Cc1ccc2ccccc2c1)C(=O)N[C@H](CCCCN)C(N)=O [22 | COR1-29-8, Ac-DNal(2’)-Arg-Nal(2’)-DLys-NH2] (Ac-[d2Nal]R[2Nal][dK]-NH2)	6.20	7.80	
CC(=O)N[C@H](Cc1ccc2ccccc2c1)C(=O)N[C@@H](CCCNC(=N)N)C(=O)N[C@@H](Cc1ccc2ccccc2c1)C(=O)N[C@H](Cc1ccc2ccccc2c1)C(N)=O [23 | COR2-33, Ac-DNal(2’)-Arg-Nal(2’)-DNal(2’)-NH2] (Ac-[d2Nal]R[2Nal][d2Nal]-NH2)		6.70	
CC(=O)N[C@H](Cc1ccc2ccccc2c1)C(=O)N[C@@H](CCCNC(=N)N)C(=O)N[C@@H](Cc1ccc2ccccc2c1)C(=O)N[C@@H](CCCNC(=N)N)C(N)=O [24 | MDE10-28, Ac-DNal(2’)-Arg-Nal(2’)-Arg-NH2] (Ac-[d2Nal]R[2Nal]R-NH2)	7.00	8.80	
CC(=O)N[C@H](Cc1ccc(I)cc1)C(=O)N[C@H](Cc1ccc2ccccc2c1)C(=O)N[C@H](Cc1ccc2ccccc2c1)C(=O)N[C@H](CCCCN)C(N)=O [25 | COR1-80, Ac-DPhe(pI)-DNal(2’)-DNal(2’)-DLys-NH2] (Ac-[dPhe(4-I)][d2Nal][d2Nal][dK]-NH2)		6.30	
CC(=O)N[C@H](Cc1ccc2ccccc2c1)C(=O)N[C@H](Cc1ccc2ccccc2c1)C(=O)N[C@H](Cc1ccc2ccccc2c1)C(=O)N[C@@H](CCCNC(=N)N)C(N)=O [compound 3, Ac-DNal(2′)-DNal(2′)-DNal(2′)-Arg-NH2] (Ac-[d2Nal][d2Nal][d2Nal]R-NH2)			pEC50 (mMC5R): 6.10 to 7.52; pEC50 (mMC5R; read-out: mMC5R agonist EC50): 6.89; mMC5R agonist activity (mMC5R): full mMC5R agonists; mMC3R antagonist activity (mMC3R [3]): did not act as antagonists
CC(=O)N[C@H](Cc1ccc2ccccc2c1)C(=O)N[C@H](Cc1ccc2ccccc2c1)C(=O)N[C@H](Cc1ccc(I)cc1)C(=O)N[C@@H](CCCNC(=N)N)C(N)=O [compound 9, Ac-DNal(2′)-DNal(2′)-DPhe(pI)-Arg-NH2] (Ac-[d2Nal][d2Nal][dPhe(4-I)]R-NH2)			pEC50 (mMC5R): 6.10 to 7.52; pEC50 (mMC5R; read-out: mMC5R agonist EC50): 7.52; mMC5R agonist activity (mMC5R): full mMC5R agonists; mMC3R antagonist activity (mMC3R [3]): did not act as antagonists
CC(=O)N[C@H](Cc1ccc(I)cc1)C(=O)N[C@H](Cc1ccc2ccccc2c1)C(=O)N[C@H](Cc1ccc2ccccc2c1)C(=O)N[C@@H](CCCNC(=N)N)C(N)=O [compound 27, Ac-DPhe(pI)-DNal(2′)-DNal(2′)-Arg-NH2] (Ac-[dPhe(4-I)][d2Nal][d2Nal]R-NH2)			mMC5R agonist activity (mMC5R): full mMC5R agonists; mMC3R antagonist activity (mMC3R [3]): did not act as antagonists
Ac-DNal(2′)-DNal(2′)-Nal(2′)-Arg-NH2 [compound 12]			mMC5R partial stimulation, % of the maximal NDP-MSH signal (mMC5R): 40%
Ac-DNal(2′)-DNal(2′)-Trp-DLys-NH2 [compound 4]			mMC3R antagonist pA2 (mMC3R [3]): 5.8
Ac-DPhe(pI)-DNal(2′)-DNal(2′)-DLys-NH2 [compound 25]			mMC4R antagonist pA2 (mMC4R [4]): 6.3
Ac-DPhe(pI)-DNal(2′)-Nal(2′)-DLys-NH2 [compound 34]			mMC5R partial stimulation, % of the maximal NDP-MSH signal (mMC5R): 50%
Ac-DPhe(pI)-DNal(2′)-Trp-Arg-NH2 [compound 30]			mMC5R agonist activity (mMC5R): inactive; mMC4R antagonist pA2 (mMC4R [4]): 5.6
Ac-DPhe(pI)-DNal(2′)-Trp-DLys-NH2 [compound 28]			mMC4R antagonist pA2 (mMC4R [4]): 6.6; mMC3R antagonist pA2 (mMC3R [3]): 5.7
Ac-[d2Nal]RW[dK]-NH2 [compound 16]			mMC4R antagonist pA2 (mMC4R [4]): 7.7
Ac-[d2Nal]R[2Nal]R-NH2 [compound 24]			mMC4R antagonist pA2 (mMC4R [4]): 8.8
Ac-[d2Nal][d2Nal]WR-NH2 [compound 6]			mMC5R partial stimulation, % of the maximal NDP-MSH signal (mMC5R): 45%
Ac-[dPhe(4-I)]RW[dK]-NH2 [compound 40]			mMC4R antagonist pA2 (mMC4R [4]): 7.6
